Each block holds one compound with its values, some of them ahead of it.
Tests used:
Pseudomonas aeruginosa [1] = test: Anti-virulence activity against Pseudomonas aeruginosa PAO1-L assessed as reduction in pyocyanin production at 10 uM incubated for 24 hrs by absorbance based analysis relative to control; assay type: functional; design: scale not given: the % may be the effect or the level left
Pseudomonas aeruginosa [2] = test: Antibacterial activity against Pseudomonas aeruginosa ATCC 15442 assessed as reduction in bacterial cell growth incubated for 24 hrs by two fold serial microdilution method; assay type: functional
Pseudomonas aeruginosa [3] = test: Antibacterial activity against Pseudomonas aeruginosa ATCC 27853 assessed as bacterial growth inhibition by agar diffusion assay; assay type: functional
[4] = Inhibition of quorum sensing system in Pseudomonas aeruginosa PAO1 expressing lasB-gfp
Pseudomonas aeruginosa [5] = test: Antibiofilm activity against Pseudomonas aeruginosa PAO1 assessed as inhibition of biofilm formation at 32 ug/ml incubated for 8 hrs by crystal violet staining based assay relative to control; assay type: functional; design: scale not given: the % may be the effect or the level left; conditions: dose 32 µg/ml
[6] = target: T1, Transcriptional activator protein LasR (Pseudomonas aeruginosa (strain ATCC 15692 / PAO1 / 1C / PRS 101 / LMG12228)) (UniProt P25084); test: Inhibition of LasR-mediated quorum sensing system in Pseudomonas aeruginosa PAO1 at 128 ug/ml relative to control; conditions: dose 128.0 µg/ml
T1 sequence (whole entry): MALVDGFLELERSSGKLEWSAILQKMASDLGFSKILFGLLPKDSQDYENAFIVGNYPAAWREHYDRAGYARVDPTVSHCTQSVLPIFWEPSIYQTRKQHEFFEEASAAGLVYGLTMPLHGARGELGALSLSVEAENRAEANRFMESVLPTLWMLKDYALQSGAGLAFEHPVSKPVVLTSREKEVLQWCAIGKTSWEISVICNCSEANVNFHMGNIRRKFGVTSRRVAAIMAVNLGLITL

Bacillus subtilis = test: Antibacterial activity against Bacillus subtilis; assay type: functional
Staphylococcus aureus = test: Antibacterial activity against Methicillin-sensitive Staphylococcus aureus; assay type: functional
Pseudomonas aeruginosa [7] = test: Antivirulence activity against Pseudomonas aeruginosa PAO1 assessed as reduction in pyocyanin level at 10 uM relative to control; assay type: functional; design: scale not given: the % may be the effect or the level left
Escherichia coli = test: Antibacterial activity against Escherichia coli; assay type: functional
Bacillus pumilus = test: Antibacterial activity against Bacillus pumilus; assay type: functional
Pseudomonas aeruginosa [8] = test: Anti-virulence effect in Pseudomonas aeruginosa PAO1 assessed as inhibition of rhamnolipid production at 10 uM relative to control; assay type: functional; design: scale not given: the % may be the effect or the level left
Pseudomonas aeruginosa [9] = test: Antibacterial activity against Pseudomonas aeruginosa; assay type: functional

SMILES: C=CCSSc1nc2ccccc2s1
- Activity (Pseudomonas aeruginosa [1]): 46%

SMILES: CCCCSSc1nc2cccc(Cl)c2c(=O)n1-c1ccccc1
- Activity (Pseudomonas aeruginosa [1]): 94%

- MIC (Pseudomonas aeruginosa [2]): > 2 µM
SMILES: NCCCCCCCCCCCCNc1ccnc2cc(Cl)ccc12

- MIC (Pseudomonas aeruginosa [3]): > 128 µg/mL
SMILES: O=C(CSc1ccc2ccccc2n1)c1ccccc1

SMILES: CCCCSSc1nc2ccccc2c(=O)[nH]1
- Activity (Pseudomonas aeruginosa [1]): 94%

- IC50 [4]: 0.6 µM
SMILES: O=c1c2cc(Cl)cc(Cl)c2ncn1CC(O)COc1ccccc1 (configuration not stated)

SMILES: CCCCCCCCSSc1nc2ccc(Cl)cc2c(=O)n1-c1ccccc1
- Activity (Pseudomonas aeruginosa [1]): 94%

- MIC (Pseudomonas aeruginosa [2]): > 2 µM
SMILES: Clc1ccc(CNCCCCCCCCNc2ccnc3cc(Cl)ccc23)cc1

SMILES: [O-][S+](Cc1ccccc1)c1nnc(-c2ccccc2)o1 (configuration not stated)
- Activity (Pseudomonas aeruginosa [5]): 40.6%

- inhibition [6]: 78.8%
SMILES: CN1CCN(CC(=O)Oc2cccc([N+](=O)[O-])c2)CC1

SMILES: CCCCSSc1nc2ccccc2c(=O)n1C1CC1
- Activity (Pseudomonas aeruginosa [1]): 94%

- inhibition [6]: 90.2%
SMILES: O=C(CN1CCSCC1)Oc1cccc([N+](=O)[O-])c1

SMILES: O=C(CCCCCOc1cccc(C(F)(F)F)c1)NN1C(=O)CN(c2ccccc2O)C1=O
- MIC (Bacillus subtilis): > 512 µg/mL
- MIC (Staphylococcus aureus): > 512 µg/mL
- Activity (Pseudomonas aeruginosa [7]): 38.62%
- MIC (Escherichia coli): > 512 µg/mL
- MIC (Bacillus pumilus): > 512 µg/mL

SMILES: [O-][S+](Cc1ccc2c(O)cccc2c1)c1nnc(-c2ccccc2)o1 (configuration not stated)
- Activity (Pseudomonas aeruginosa [5]): 40.88%

- inhibition [6]: 50.2%
SMILES: O=C(Oc1cccc([N+](=O)[O-])c1)C(=O)N1CCOCC1

- inhibition [6]: 50.2%
SMILES: O=C(CC1CCC(F)CC1)Oc1cccc([N+](=O)[O-])c1 (configuration not stated)

SMILES: O=C(CCCCCOc1cccc(C(F)(F)F)c1)NNC(=O)Cn1c(=O)oc2ccccc21
- Activity (Pseudomonas aeruginosa [8]): 2.53%

- MIC (Pseudomonas aeruginosa [3]): > 128 µg/mL
SMILES: O=C(CSc1ccc2ccccc2n1)c1ccc2c(c1)OCCO2

- MIC (Pseudomonas aeruginosa [2]): > 2 µM
SMILES: Fc1cccc(CNCCCCCCCCNc2ccnc3cc(Cl)ccc23)c1

SMILES: CCCCSSc1nc2ccccc2c(=O)n1-c1ccccc1
- Activity (Pseudomonas aeruginosa [1]): 94%

- inhibition [6]: 78.8%
SMILES: O=C(CCN1CCOCC1)Oc1cccc([N+](=O)[O-])c1

SMILES: [O-][S+](Cc1ccc(F)cc1)c1nnn(-c2ccccc2)n1 (configuration not stated)
- Activity (Pseudomonas aeruginosa [5]): 1.64%

SMILES: Cc1ccc(C[S+]([O-])c2nnn(-c3ccccc3)n2)cc1 (configuration not stated)
- Activity (Pseudomonas aeruginosa [5]): 1.64%

- inhibition [6]: 50.2%
SMILES: CC(C)(C)c1cccc(OC(=O)CN2CCOCC2)c1

- MIC (Pseudomonas aeruginosa [2]): > 2 µM
SMILES: Clc1ccc2c(NCCCCCCCCNCCc3ccccc3)ccnc2c1

SMILES: CCCCCCSSc1nc2ccccc2c(=O)[nH]1
- Activity (Pseudomonas aeruginosa [1]): 94%

- MIC (Pseudomonas aeruginosa [2]): > 2 µM
SMILES: Clc1ccc2c(NCCCCCCNCCc3ccccc3)ccnc2c1

SMILES: CCCCCCCCCCCC(=O)NN1C(=O)CN(c2ccccc2O)C1=O
- MIC (Bacillus subtilis): > 512 µg/mL
- MIC (Staphylococcus aureus): > 512 µg/mL
- MIC (Escherichia coli): > 512 µg/mL
- MIC (Bacillus pumilus): > 512 µg/mL
- MIC (Pseudomonas aeruginosa [9]): > 512 µg/mL

- MIC (Pseudomonas aeruginosa [3]): > 512 µg/mL
SMILES: O=C(CSC1=NC2C=C([N+](=O)[O-])C=CC2=N1)Cc1ccc(Br)cc1 (configuration not stated)

SMILES: O=C(CCCCCOc1ccc(C(F)(F)F)cc1)NNC(=O)Cn1c(=O)oc2ccccc21
- Activity (Pseudomonas aeruginosa [8]): 2.53%

SMILES: [O-][S+](Cc1ccc(Br)cc1)c1nnc(-c2ccccc2)o1 (configuration not stated)
- Activity (Pseudomonas aeruginosa [5]): 21.94%

SMILES: CCCCCCCCSSc1nc2ccccc2c(=O)n1C1CC1
- Activity (Pseudomonas aeruginosa [1]): 94%

SMILES: O=[N+]([O-])c1ccc(C[S+]([O-])c2nnn(-c3ccccc3)n2)cc1 (configuration not stated)
- Activity (Pseudomonas aeruginosa [5]): 1.64%

- MIC (Pseudomonas aeruginosa [3]): > 128 µg/mL
SMILES: COc1ccc(C(=O)CSc2ccc3ccccc3n2)c(OC)c1

- MIC (Pseudomonas aeruginosa [3]): > 128 µg/mL
SMILES: O=C(CSc1nc2ccccc2s1)c1ccc(Cl)c(Cl)c1

SMILES: O=[N+]([O-])c1ccc(C[S+]([O-])c2nnc(-c3ccccc3)o2)cc1 (configuration not stated)
- Activity (Pseudomonas aeruginosa [5]): 40.6%

SMILES: CCCCCCSSc1nc2cccc(Cl)c2c(=O)n1-c1ccccc1
- Activity (Pseudomonas aeruginosa [1]): 94%

SMILES: [O-][S+](Cc1ccc(Br)cc1)c1nnn(-c2ccccc2)n1 (configuration not stated)
- Activity (Pseudomonas aeruginosa [5]): 1.64%

SMILES: Cc1ccc(C[S+]([O-])c2nnc(-c3ccccc3)o2)cc1 (configuration not stated)
- Activity (Pseudomonas aeruginosa [5]): 40.6%

- MIC (Pseudomonas aeruginosa [2]): > 2 µM
SMILES: NCCCCCCCCCCCCNc1ccnc2cc(C(F)(F)F)ccc12

SMILES: CCCCCCCCCc1nc2cc(Cl)ccc2c(=O)n1N
- Activity (Pseudomonas aeruginosa [1]): 46%

- IC50 [4]: 0.6 µM
SMILES: O=c1c2cc(C(F)(F)F)ccc2ncn1CC(O)COc1ccccc1 (configuration not stated)

- MIC (Pseudomonas aeruginosa [2]): > 2 µM
SMILES: Clc1cccc(CNCCCCCCCCNc2ccnc3cc(Cl)ccc23)c1

- MIC (Pseudomonas aeruginosa [2]): > 2 µM
SMILES: Fc1ccc(CNCCCCCCCCNc2ccnc3cc(Cl)ccc23)cc1

SMILES: [O-][S+](Cc1ccccc1Cl)c1nnc(-c2ccccc2)o1 (configuration not stated)
- Activity (Pseudomonas aeruginosa [5]): 40.6%

- MIC (Pseudomonas aeruginosa [3]): > 128 µg/mL
SMILES: COc1cc(C(=O)CSc2ccc3ccccc3n2)ccc1O

SMILES: [O-][S+](Cc1ccccc1Cl)c1nnn(-c2ccccc2)n1 (configuration not stated)
- Activity (Pseudomonas aeruginosa [5]): 1.64%

SMILES: [O-][S+](Cc1ccc(C(F)(F)F)cc1)c1nnn(-c2ccccc2)n1 (configuration not stated)
- Activity (Pseudomonas aeruginosa [5]): 1.64%

- MIC (Pseudomonas aeruginosa [3]): > 128 µg/mL
SMILES: COc1ccccc1C(=O)CSc1ccc2ccccc2n1
